How the values were obtained:
Assay in all cases: KinaseProfiler Assay
Fms(h) = Fms(h) (Homo sapiens, UniProt P07333)
GRK7(h) = target: T1, GRK7(h) (Homo sapiens, UniProt Q8WTQ7)
T1 sequence (Q8WTQ7 1-553): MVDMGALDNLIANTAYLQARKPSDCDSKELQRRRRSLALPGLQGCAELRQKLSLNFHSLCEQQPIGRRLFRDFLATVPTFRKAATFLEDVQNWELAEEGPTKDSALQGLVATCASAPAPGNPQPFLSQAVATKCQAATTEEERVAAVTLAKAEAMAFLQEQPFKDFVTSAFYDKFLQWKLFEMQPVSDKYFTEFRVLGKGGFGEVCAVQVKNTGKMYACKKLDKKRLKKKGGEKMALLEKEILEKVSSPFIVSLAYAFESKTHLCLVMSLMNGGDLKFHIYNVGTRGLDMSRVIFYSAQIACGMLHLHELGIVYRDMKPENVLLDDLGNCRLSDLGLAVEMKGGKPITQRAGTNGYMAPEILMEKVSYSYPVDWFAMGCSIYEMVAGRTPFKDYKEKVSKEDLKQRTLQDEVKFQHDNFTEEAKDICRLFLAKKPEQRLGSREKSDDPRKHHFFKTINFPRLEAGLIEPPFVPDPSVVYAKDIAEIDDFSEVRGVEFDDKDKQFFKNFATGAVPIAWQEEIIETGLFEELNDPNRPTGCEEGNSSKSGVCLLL

Flt3(h) = target: T2, Flt3(h) (Homo sapiens, UniProt P36888)
T2 sequence (P36888 27-993): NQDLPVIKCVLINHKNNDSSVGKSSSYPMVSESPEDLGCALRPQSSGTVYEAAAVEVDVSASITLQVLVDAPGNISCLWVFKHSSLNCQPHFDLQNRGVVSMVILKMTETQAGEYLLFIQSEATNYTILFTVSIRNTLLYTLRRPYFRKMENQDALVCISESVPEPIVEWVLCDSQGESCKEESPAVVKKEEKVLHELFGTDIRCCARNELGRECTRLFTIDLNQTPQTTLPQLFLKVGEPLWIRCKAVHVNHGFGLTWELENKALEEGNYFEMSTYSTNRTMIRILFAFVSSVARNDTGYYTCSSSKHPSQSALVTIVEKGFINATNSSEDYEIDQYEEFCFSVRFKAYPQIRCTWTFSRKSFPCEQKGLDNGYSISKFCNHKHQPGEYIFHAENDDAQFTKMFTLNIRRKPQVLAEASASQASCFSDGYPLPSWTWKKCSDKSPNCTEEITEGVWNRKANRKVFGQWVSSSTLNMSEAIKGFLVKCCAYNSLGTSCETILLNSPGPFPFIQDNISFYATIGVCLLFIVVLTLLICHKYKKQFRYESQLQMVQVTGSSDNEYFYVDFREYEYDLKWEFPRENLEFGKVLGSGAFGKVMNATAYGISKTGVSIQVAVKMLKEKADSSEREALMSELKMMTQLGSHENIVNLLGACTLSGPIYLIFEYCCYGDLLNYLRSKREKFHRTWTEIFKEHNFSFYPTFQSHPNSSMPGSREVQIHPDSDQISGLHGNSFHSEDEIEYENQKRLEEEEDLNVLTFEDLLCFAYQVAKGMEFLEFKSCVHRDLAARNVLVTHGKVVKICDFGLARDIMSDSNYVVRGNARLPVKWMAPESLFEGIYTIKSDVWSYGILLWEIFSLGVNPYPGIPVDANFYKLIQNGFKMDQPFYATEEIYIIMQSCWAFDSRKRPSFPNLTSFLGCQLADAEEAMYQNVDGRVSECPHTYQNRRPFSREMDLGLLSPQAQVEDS

CaMKIIβ(h) = CaMKIIβ(h) (Homo sapiens, UniProt Q13554)
Chain of CaMKIIβ(h) (Q13554 whole entry): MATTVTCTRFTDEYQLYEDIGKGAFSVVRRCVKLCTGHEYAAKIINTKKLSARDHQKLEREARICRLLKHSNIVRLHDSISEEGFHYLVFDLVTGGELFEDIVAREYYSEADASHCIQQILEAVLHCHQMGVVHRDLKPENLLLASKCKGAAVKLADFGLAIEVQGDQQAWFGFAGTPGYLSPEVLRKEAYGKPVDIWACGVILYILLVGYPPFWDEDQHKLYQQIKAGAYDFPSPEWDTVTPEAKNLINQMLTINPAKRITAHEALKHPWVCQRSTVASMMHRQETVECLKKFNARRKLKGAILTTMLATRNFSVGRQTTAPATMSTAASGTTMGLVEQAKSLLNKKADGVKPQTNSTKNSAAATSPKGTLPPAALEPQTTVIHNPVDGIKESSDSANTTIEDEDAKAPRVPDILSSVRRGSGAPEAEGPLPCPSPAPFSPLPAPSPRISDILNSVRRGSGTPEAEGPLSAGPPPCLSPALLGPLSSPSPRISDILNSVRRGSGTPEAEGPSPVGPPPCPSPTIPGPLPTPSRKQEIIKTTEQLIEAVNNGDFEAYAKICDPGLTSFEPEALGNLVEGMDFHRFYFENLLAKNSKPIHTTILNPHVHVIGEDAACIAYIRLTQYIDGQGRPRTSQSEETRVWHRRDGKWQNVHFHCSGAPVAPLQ

Ret(h) = Ret(h) (Homo sapiens, UniProt P07949)
Chain of Ret(h) (P07949 29-1114): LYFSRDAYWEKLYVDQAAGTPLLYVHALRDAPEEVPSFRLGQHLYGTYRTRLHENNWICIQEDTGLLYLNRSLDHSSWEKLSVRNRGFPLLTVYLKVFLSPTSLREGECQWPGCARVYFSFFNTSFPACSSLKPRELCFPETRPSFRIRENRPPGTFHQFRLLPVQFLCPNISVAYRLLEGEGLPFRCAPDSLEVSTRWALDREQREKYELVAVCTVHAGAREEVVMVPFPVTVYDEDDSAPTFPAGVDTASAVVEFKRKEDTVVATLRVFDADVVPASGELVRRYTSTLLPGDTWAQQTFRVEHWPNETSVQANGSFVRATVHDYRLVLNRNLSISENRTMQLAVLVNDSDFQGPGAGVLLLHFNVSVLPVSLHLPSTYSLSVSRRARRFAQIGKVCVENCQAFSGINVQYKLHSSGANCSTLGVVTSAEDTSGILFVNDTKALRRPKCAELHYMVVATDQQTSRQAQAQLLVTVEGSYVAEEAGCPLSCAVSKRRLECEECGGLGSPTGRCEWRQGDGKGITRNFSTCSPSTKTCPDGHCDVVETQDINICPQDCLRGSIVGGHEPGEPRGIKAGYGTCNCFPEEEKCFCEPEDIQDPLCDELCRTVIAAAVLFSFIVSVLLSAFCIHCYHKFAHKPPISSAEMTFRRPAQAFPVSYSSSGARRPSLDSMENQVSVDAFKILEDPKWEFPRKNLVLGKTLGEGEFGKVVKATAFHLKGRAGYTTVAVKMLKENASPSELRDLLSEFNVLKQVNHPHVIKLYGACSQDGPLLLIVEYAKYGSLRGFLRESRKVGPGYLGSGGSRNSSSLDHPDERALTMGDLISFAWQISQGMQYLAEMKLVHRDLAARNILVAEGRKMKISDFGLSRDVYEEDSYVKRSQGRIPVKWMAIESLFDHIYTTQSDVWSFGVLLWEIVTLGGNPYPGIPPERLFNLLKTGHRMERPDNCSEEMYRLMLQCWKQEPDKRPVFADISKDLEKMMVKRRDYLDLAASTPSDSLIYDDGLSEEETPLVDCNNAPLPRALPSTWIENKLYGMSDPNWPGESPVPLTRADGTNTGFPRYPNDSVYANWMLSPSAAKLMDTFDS

Haspin(h) = target: T3, Haspin(h) (Homo sapiens, UniProt Q8TF76)
T3 sequence (Q8TF76 1-798): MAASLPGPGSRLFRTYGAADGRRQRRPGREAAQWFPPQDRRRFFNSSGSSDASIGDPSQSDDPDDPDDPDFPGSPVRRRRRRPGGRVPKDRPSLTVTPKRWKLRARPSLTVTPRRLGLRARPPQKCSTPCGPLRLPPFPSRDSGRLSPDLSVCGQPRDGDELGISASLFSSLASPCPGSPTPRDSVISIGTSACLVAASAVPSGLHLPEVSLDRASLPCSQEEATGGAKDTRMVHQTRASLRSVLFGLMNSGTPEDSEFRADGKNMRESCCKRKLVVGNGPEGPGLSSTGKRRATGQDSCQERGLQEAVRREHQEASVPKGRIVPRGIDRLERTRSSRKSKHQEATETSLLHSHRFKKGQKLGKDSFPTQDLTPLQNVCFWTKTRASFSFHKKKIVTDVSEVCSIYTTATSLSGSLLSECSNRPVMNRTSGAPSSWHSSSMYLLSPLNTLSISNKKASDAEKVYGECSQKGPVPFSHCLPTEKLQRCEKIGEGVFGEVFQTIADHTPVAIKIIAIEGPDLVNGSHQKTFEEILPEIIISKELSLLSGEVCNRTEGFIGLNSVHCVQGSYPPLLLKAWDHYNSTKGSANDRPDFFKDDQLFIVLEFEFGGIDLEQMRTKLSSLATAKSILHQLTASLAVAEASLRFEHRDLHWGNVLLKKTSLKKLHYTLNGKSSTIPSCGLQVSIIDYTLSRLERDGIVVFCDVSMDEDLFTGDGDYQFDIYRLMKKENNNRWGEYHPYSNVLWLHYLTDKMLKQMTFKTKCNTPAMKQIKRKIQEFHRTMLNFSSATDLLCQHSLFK

Chain of Fms(h) (P07333 20-972): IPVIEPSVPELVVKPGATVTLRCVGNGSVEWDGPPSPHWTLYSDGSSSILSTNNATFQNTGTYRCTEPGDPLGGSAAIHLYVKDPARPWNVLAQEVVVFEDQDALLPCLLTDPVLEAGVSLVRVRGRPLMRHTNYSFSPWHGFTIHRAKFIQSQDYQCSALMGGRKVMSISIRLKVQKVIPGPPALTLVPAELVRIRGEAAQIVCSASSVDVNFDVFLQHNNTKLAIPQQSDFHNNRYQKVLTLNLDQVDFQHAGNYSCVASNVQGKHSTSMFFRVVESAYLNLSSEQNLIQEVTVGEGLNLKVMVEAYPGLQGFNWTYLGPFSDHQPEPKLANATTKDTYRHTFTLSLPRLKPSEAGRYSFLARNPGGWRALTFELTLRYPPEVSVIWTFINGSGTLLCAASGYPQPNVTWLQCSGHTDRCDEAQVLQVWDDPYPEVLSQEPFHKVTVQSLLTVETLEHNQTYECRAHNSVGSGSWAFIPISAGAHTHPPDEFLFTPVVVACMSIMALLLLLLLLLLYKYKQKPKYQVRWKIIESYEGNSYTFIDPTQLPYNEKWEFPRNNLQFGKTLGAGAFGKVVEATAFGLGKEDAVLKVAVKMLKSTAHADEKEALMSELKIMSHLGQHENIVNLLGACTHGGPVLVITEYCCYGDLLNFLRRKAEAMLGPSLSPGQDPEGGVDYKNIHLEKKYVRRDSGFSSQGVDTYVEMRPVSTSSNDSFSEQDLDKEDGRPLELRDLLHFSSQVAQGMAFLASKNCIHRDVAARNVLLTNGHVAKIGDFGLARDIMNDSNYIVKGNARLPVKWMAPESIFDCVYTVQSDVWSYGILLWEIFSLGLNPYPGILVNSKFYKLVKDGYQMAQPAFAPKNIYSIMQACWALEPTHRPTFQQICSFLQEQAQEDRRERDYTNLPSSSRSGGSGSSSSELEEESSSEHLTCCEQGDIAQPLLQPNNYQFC

`CC(C)CCC(=O)[C@]1(O)C(O)=C(C(=O)C(C)C)C(=O)[C@H]1CCC(C)C` [TH2, tetrahydroiso-cohumulone] was tested, and the kinase inhibition (Fms(h); 1 μg/ml) was 116% of control, the kinase inhibition (Fms(h); 5 μg/ml) was 103% of control and the kinase inhibition (Fms(h); 25 μg/ml) was 121% of control. For the same compound, the kinase inhibition (Fms(h); 50 μg/ml) was 117% of control, the kinase inhibition (Fms(h); 100 μg/ml) was 98% of control and the kinase inhibition (GRK7(h); 1 μg/ml) was 110% of control. The kinase inhibition (GRK7(h); 5 μg/ml) was 95% of control, the kinase inhibition (GRK7(h); 25 μg/ml) was 102% of control and the kinase inhibition (GRK7(h); 50 μg/ml) was 91% of control. The kinase inhibition (GRK7(h); 100 μg/ml) was 99% of control, the kinase inhibition (Flt3(h); 1 μg/ml) was 107% of control and the kinase inhibition (Flt3(h); 5 μg/ml) was 99% of control. The kinase inhibition (Flt3(h); 25 μg/ml) was 109% of control, the kinase inhibition (Flt3(h); 50 μg/ml) was 95% of control and the kinase inhibition (Flt3(h); 100 μg/ml) was 84% of control. The kinase inhibition (CaMKIIβ(h); 1 μg/ml) was 103% of control, the kinase inhibition (CaMKIIβ(h); 5 μg/ml) was 106% of control and the kinase inhibition (CaMKIIβ(h); 25 μg/ml) was 95% of control. For the same compound, the kinase inhibition (CaMKIIβ(h); 50 μg/ml) was 83% of control, the kinase inhibition (CaMKIIβ(h); 100 μg/ml) was 66% of control and the kinase inhibition (Ret(h); 1 μg/ml) was 112% of control. For the same compound, the kinase inhibition (Ret(h); 5 μg/ml) was 115% of control, the kinase inhibition (Ret(h); 25 μg/ml) was 101% of control and the kinase inhibition (Ret(h); 50 μg/ml) was 100% of control. The kinase inhibition (Ret(h); 100 μg/ml) was 68% of control, the kinase inhibition (Haspin(h); 1 μg/ml) was 105% of control and the kinase inhibition (Haspin(h); 5 μg/ml) was 95% of control. For the same compound, the kinase inhibition (Haspin(h); 25 μg/ml) was 90% of control, the kinase inhibition (Haspin(h); 50 μg/ml) was 76% of control and the kinase inhibition (Haspin(h); 100 μg/ml) was 49% of control.

Reference: patent US20100137449A1, “SUBSTITUTED 1,3-CYCLOPENTADIONE MULTI-TARGET PROTEIN KINASE MODULATORS OF CANCER, ANGIOGENESIS AND THE INFLAMMATORY PATHWAYS ASSOCIATED THEREWITH” (METAPROTEOMICS, LLC, priority 2007, published 2010)
